Data as given in ChEMBL document CHEMBL5150045, “Structure-Guided Design of Halofuginone Derivatives as ATP-Aided Inhibitors Against Bacterial Prolyl-tRNA Synthetase” (J Med Chem, 2022).
Values after ≈ are worked out from the molar mass of the structure shown. Values joined by “and” are separate entries in the source; they are usually repeats but may differ in a detail not shown here. Equal entries are not always repeated. Active and inactive are the calls of the source. The rule behind the calls is not given here.

What was measured:
[1] = tested on: Staphylococcus aureus; experiment: Antibacterial activity against methicillin-resistant Staphylococcus aureus 252 assessed as prevention of visible growth by broth microdilution method; assay type: functional
[2] = tested on: Staphylococcus aureus; experiment: Antibacterial activity against Staphylococcus aureus ATCC29213 assessed as prevention of visible growth by broth microdilution method; assay type: functional
[3] = tested on: Staphylococcus aureus; experiment: Bacteriostatic effect against methicillin-resistant Staphylococcus aureus 252 assessed as decrease in CFU/ml at MIC measured for 24 hrs by CLSI based time-kill kinetic assays; assay type: functional
[4] = tested on: Staphylococcus aureus; experiment: Antibacterial activity against methicillin-resistant Staphylococcus aureus R3708 assessed as prevention of visible growth by broth microdilution method; assay type: functional
[5] = tested on: Escherichia coli; experiment: Antibacterial activity against Escherichia coli ATCC25922 assessed as prevention of visible growth by broth microdilution method; assay type: functional
[6] = tested on: Staphylococcus aureus; experiment: Antibacterial activity against Staphylococcus aureus ATCC25923 assessed as prevention of visible growth by broth microdilution method; assay type: functional
[7] = tested on: Shigella flexneri; experiment: Antibacterial activity against Shigella flexneri CMCC51572 assessed as prevention of visible growth by broth microdilution method; assay type: functional
[8] = tested on: Salmonella typhi; experiment: Antibacterial activity against Salmonella typhi CMCC50094 assessed as prevention of visible growth by broth microdilution method; assay type: functional, Salmonella enterica subsp. enterica serovar Typhi; conditions: Salmonella enterica
[9] = tested on: Escherichia coli; experiment: Resistance development in Escherichia coli ATCC25922 assessed as fold increase in resistance after 15 days serial passage upto 256 ug/ml; assay type: functional; conditions: dose <= 256 µg/ml; time 15 day
[10] = tested on: Staphylococcus aureus; experiment: Resistance development in methicillin-resistant Staphylococcus aureus 252 assessed as fold increase in resistance after 15 days serial passage upto 256 ug/ml; assay type: functional; conditions: dose <= 256 µg/ml; time 15 day
[11] = tested on: Staphylococcus aureus; experiment: Inhibition of methicillin-resistant Staphylococcus aureus ProRS expressed in Escherichia coli assessed as change in melting temperature in presence of AMPPNP at 0.5 mM by fluorescence-based thermal shift assay
[12] = Binding affinity to methicillin-resistant Staphylococcus aureus ProRS expressed in Escherichia coli assessed as dissociation constant by microscale thermophoresis assay
[13] = organism: Homo sapiens; experiment: Inhibition of human ProRS expressed in Escherichia coli assessed as change in melting temperature in presence of AMPPNP at 0.5 mM by fluorescence-based thermal shift assay
[14] = organism: Homo sapiens; experiment: Inhibition of human ProRS expressed in Escherichia coli assessed as generation of inorganic monophosphate by pre-transfer editing-based experiment; conditions: dose 0-100 µM, DDE = dose-dependent effect
[15] = target: T1, Proline--tRNA ligase (Escherichia coli) (UniProt P16659); experiment: Inhibition of Escherichia coil ProRS expressed in Escherichia coli assessed as change in melting temperature in presence of AMPPNP at 0.5 mM by fluorescence-based thermal shift assay
T1 sequence (whole entry): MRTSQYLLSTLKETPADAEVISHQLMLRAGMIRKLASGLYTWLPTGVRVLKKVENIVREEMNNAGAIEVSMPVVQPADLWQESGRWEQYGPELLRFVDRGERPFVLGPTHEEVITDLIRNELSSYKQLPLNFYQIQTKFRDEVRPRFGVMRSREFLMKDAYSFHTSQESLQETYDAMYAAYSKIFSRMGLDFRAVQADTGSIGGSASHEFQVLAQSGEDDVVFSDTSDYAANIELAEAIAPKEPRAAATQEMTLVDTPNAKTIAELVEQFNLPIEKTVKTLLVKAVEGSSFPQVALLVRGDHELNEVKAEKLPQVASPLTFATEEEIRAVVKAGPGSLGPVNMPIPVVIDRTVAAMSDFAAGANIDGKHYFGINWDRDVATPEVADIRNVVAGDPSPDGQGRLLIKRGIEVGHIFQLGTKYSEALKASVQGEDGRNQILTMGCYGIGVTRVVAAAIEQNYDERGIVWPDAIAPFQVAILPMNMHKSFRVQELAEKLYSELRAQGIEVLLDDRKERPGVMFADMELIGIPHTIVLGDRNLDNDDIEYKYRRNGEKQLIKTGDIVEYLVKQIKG

[16] = target: T2, Proline--tRNA ligase (Salmonella typhi) (UniProt Q8XEY9); experiment: Inhibition of Salmonella typhi ProRS expressed in Escherichia coli assessed as generation of inorganic monophosphate by pre-transfer editing-based experiment; conditions: Salmonella enterica subsp. enterica serovar Typhi; dose 0-100 µM; DDE = dose-dependent effect
T2 sequence (whole entry): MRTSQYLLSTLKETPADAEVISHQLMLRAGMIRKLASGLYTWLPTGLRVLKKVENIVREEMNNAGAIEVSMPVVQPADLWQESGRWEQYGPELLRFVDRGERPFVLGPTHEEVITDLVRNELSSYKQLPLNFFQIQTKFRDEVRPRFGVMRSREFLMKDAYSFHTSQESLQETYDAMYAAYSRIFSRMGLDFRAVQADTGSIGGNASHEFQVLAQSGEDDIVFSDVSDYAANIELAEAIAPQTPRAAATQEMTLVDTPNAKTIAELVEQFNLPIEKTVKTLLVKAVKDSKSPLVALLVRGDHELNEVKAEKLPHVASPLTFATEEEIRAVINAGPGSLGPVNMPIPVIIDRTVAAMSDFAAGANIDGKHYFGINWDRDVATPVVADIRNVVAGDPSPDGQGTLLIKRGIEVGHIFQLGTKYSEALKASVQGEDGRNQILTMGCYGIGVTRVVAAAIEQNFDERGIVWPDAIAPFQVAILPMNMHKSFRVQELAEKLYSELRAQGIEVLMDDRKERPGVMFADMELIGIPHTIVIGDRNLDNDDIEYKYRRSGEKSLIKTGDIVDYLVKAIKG

[17] = Binding affinity to methicillin-resistant Staphylococcus aureus ProRS expressed in Escherichia coli assessed as dissociation constant in presence of 0.2 nM ATP by microscale thermophoresis assay
[18] = target: T2, Proline--tRNA ligase (Salmonella typhi); experiment: Inhibition of Salmonella typhi ProRS expressed in Escherichia coli assessed as change in melting temperature in presence of AMPPNP at 0.5 mM by fluorescence-based thermal shift assay; conditions: Salmonella enterica subsp. enterica serovar Typhi
[19] = Cytotoxicity against human HepG2 cells; assay type: toxicity, cell-based
[20] = Binding affinity to methicillin-resistant Staphylococcus aureus ProRS expressed in Escherichia coli assessed as dissociation constant in presence of 0.5 nM ATP by microscale thermophoresis assay
[21] = tested on: Staphylococcus aureus; experiment: (§1) Inhibition of methicillin-resistant Staphylococcus aureus ProRS expressed in Escherichia coli assessed as generation of inorganic monophosphate by pre-transfer editing-based experiment; conditions: dose 0-100 µM, DDE = dose-dependent effect
[22] = as §1
[23] = Binding affinity to methicillin-resistant Staphylococcus aureus ProRS expressed in Escherichia coli assessed as dissociation constant in presence of 0.1 nM ATP by microscale thermophoresis assay
[24] = Binding affinity to methicillin-resistant Staphylococcus aureus ProRS expressed in Escherichia coli assessed as dissociation constant in presence of 1 nM ATP by microscale thermophoresis assay
[25] = Binding affinity to methicillin-resistant Staphylococcus aureus ProRS expressed in Escherichia coli assessed as dissociation constant in presence of 0.05 nM ATP by microscale thermophoresis assay
[26] = tested on: Saccharomyces cerevisiae; experiment: Inhibition of Saccharomyces cerevisiae ProRS expressed in Escherichia coli assessed as generation of inorganic monophosphate at 0 to 100 uM by pre-transfer editing-based experiment; conditions: dose 0-100 µM, DDE = dose-dependent effect
[27] = Binding affinity to methicillin-resistant Staphylococcus aureus ProRS expressed in Escherichia coli assessed as dissociation constant in presence of 2 nM ATP by microscale thermophoresis assay
[28] = target: T1, Proline--tRNA ligase (Escherichia coli); experiment: Inhibition of Escherichia coli ProRS expressed in Escherichia coli assessed as generation of inorganic monophosphate by pre-transfer editing-based experiment; conditions: dose 0-100 µM, DDE = dose-dependent effect
[29] = tested on: Staphylococcus aureus; experiment: Bacteriostatic effect against methicillin-resistant Staphylococcus aureus 252 assessed as decrease in CFU/ml at 1 to 4 times of MIC measured for 0 to 12 hrs by CLSI based time-kill kinetic assays; assay type: functional, organism-based; conditions: time 0-12 hrs
[30] = tested on: Staphylococcus aureus; experiment: Bactericidal activity against methicillin-resistant Staphylococcus aureus 252 assessed as bacterial killing measured after 24 hrs incubation by CLSI method; assay type: functional; conditions: read-out: MBC99.9
[31] = tested on: Escherichia coli; experiment: Ratio of MBC99.9 for Escherichia coli ATCC25922 to MIC for Escherichia coli ATCC25922; assay type: functional
[32] = tested on: Escherichia coli; experiment: Bacteriostatic effect against Escherichia coli ATCC25922 assessed as decrease in CFU/ml at 1 to 4 times of MIC measured for 0 to 12 hrs by CLSI based time-kill kinetic assays; assay type: functional, organism-based; conditions: time 0-12 hrs
[33] = tested on: Staphylococcus aureus; experiment: Ratio of MBC99.9 for methicillin-resistant Staphylococcus aureus 252 to MIC for methicillin-resistant Staphylococcus aureus 252; assay type: functional
[34] = tested on: Staphylococcus aureus; experiment: Antibacterial activity against drug-resistance induced methicillin-resistant Staphylococcus aureus 252 assessed as assessed as reversal of drug resistance measured after 10 days in compound free media by broth microdilution method; assay type: functional; conditions: Staphylococcus aureus, 252, 240 h; time 10 day
[35] = tested on: Staphylococcus aureus; experiment: Bacteriostatic effect against methicillin-resistant Staphylococcus aureus 252 assessed as decrease in CFU/ml at 4 times of MIC measured for 24 hrs by CLSI based time-kill kinetic assays; assay type: functional
[36] = tested on: Escherichia coli; experiment: Antibacterial activity against drug-resistance induced Escherichia coli ATCC25922 assessed as assessed as reversal of drug resistance measured after 10 days in compound free media by broth microdilution method; assay type: functional; conditions: ATCC25922, 240 h, time 10 day
[37] = tested on: Escherichia coli; experiment: Bacteriostatic effect against Escherichia coli ATCC25922 assessed as decrease in CFU/ml at 4 times of MIC measured for 24 hrs by CLSI based time-kill kinetic assays; assay type: functional
[38] = Selectivity index, ratio of CC50 for human HepG2 cells to MIC for methicillin-resistant Staphylococcus aureus 252; assay type: toxicity; conditions: read-out: Selectivity Index

| SMILES | MIC [1] | MIC [2] | MIC [4] | MIC [5] | MIC [6] | MIC [7] | MIC [8] | fold change (FC) [9] | fold change (FC) [10] | ΔTm [11] | Kd [12] | ΔTm [13] | Kd [17] | CC50 [19] | Kd [20] | IC50 [22] | Kd [23] | Kd [24] | Kd [25] | Kd [27] | other results |
| --- | --- | --- | --- | --- | --- | --- | --- | --- | --- | --- | --- | --- | --- | --- | --- | --- | --- | --- | --- | --- | --- |
| C/C(=C\C(=O)OCCCCCCCCC(=O)O)C[C@@H]1OC[C@H](C[C@@H]2O[C@H]2[C@@H](C)[C@H](C)O)[C@@H](O)[C@H]1O [MUPIROCIN] | 0.13 µg/mL (≈ 0.26 µM) | 0.13 µg/mL (≈ 0.26 µM) | 0.13 µg/mL (≈ 0.26 µM) | 32 µg/mL (≈ 63.9 µM) | 0.13 µg/mL (≈ 0.26 µM) | 8 µg/mL (≈ 16 µM) | 32 µg/mL (≈ 63.9 µM) | – | – | – | – | – | – | – | – | – | – | – | – | – | Activity [3]: 1.2 log10CFU/ml |
| O=C(O)c1cn(C2CC2)c2cc(N3CCNCC3)c(F)cc2c1=O [CIPROFLOXACIN] | – | – | – | – | – | 2 µg/mL (≈ 6.04 µM) | – | 16 | – | – | – | – | – | – | – | – | – | – | – | – | – |
| C[C@H]1COc2c(N3CCN(C)CC3)c(F)cc3c(=O)c(C(=O)O)cn1c23.C[C@H]1COc2c(N3CCN(C)CC3)c(F)cc3c(=O)c(C(=O)O)cn1c23.O [LEVOFLOXACIN] | – | – | – | – | – | – | – | – | 64 | – | – | – | – | – | – | – | – | – | – | – | – |
| O=C(CC1NCCCC1O)Cn1cnc2cc(Br)c(Cl)cc2c1=O (stereo unspecified) [HALOFUGINONE] | 64 µg/mL (≈ 154 µM) | > 64 µg/mL | 64 µg/mL (≈ 154 µM) | 64 µg/mL (≈ 154 µM) | > 64 µg/mL | 64 µg/mL (≈ 154 µM) | > 64 µg/mL | – | – | 6.9 °C and 6 °C | 1020 µM | 13.6 °C and 17.4 °C | 11.6 µM | 4.32 µM | 5.51 µM | 0.66 µM | 628 µM | 0.423 µM | 781 µM | 0.216 µM | inhibition [14]: Dde; ΔTm [15]: 17.4 °C; inhibition [16]: Dde; ΔTm [18]: 12.5 °C; inhibition [21]: Dde; inhibition [26]: Dde; inhibition [28]: Dde |
| O=C(C[C@@H]1CCCCN1)Cn1cnc2cc(Cl)c(F)cc2c1=O | 1 µg/mL (≈ 2.96 µM) | 2 µg/mL (≈ 5.92 µM) | 1 µg/mL (≈ 2.96 µM) | 1 µg/mL (≈ 2.96 µM) | 4 µg/mL (≈ 11.8 µM) | 1 µg/mL (≈ 2.96 µM) | 4 µg/mL (≈ 11.8 µM) | 16 | 15 | 10.2 °C | 376 µM | 20.4 °C | 8.33 µM | 0.076 µM | 0.691 µM | 0.18 µM | 205 µM | 0.0675 µM | 276 µM | 0.0303 µM | Activity [29]: Active; MBC [30]: 8 µg/mL (≈ 23.7 µM); Ratio [31]: 16; Activity [32]: Active; Ratio [33]: 8; MIC [34]: 4 µg/mL; Activity [35]: 2.1 log10CFU/ml; MIC [36]: 8 µg/mL; Activity [37]: 1.6 log10CFU/ml; selectivity ratio [38]: 3600 |
